Data reported in article PMC6196238, “Novobiocin, a Newly Found TRPV1 Inhibitor, Attenuates the Expression of TRPV1 in Rat Intestine and Intestinal Epithelial Cell Line IEC-6” (Frontiers in Pharmacology, 2018).

What was measured:
[1] = system: IEC-6/TRPV1- cells; assay: LDH release assay (cell membrane integrity)
Procedure: (§4) The transfected cells were plated in 12-well plates. […] The cells were centrifuged at 1000 g for 5 min. Next, 50 μL of supernatants were aspirated and the rest of supernatants were discarded. The cells were washed twice with deionized water and then lysed by ultrasonic wave cracker. And then cell lysate and supernatants were analyzed by using LDH Release Assay Kit, according to the manufacturer’s instructions.

[2] = system: TRPV1; assay: TRPV1 expression in IEC-6/TRPV1+ cells (qRT-PCR, western blot, immunofluorescence); assay type: cell-based, rat; conditions: for fluorescence intensity of TRPV1: pre-treatment 24 h, NOVO 10 μM, SB-705498 0.1 μM, Figure 2G
Procedure: The IEC-6/TRPV1^+ cells were cultured on coverslips in 24-well plates overnight. Briefly, cells were stimulated with NOVO (10 μM), SB-705498 (0.1 μM) for 24 h. At the end of incubation, cells were fixed with 4% paraformaldehyde in 0.1 M PBS for 20 min. The cells were then treated by 0.25% (v/v) TritonX-100 for 5 min, and washed again. Followed by blocking in 5% (v/v) horse serum for 60 min, cells were then incubated with primary antibodies for the anti-TRPV1 receptor antibody (1:1000, NB100-1617, Novus) overnight in a 4°C refrigerator. Alexa Flour® 488-conjugated goat anti-rabbit IgG (Zhongshan Goldenbridge Biotechnology) at 1:100 dilution was used as the secondary antibody that incubated cells for 60 min. Thereafter, the coverslips were mounted face down onto slides with mounting medium containing DAPI and stored at 4°C before microscopy. Fluorescence images were captured using a fluorescence microscope (Olympus, Japan).
qRT-PCR was performed to evaluate TRPV1 mRNA expression after NOVO treatment. The total RNA of the cells or tissues was isolated with an RNA isolation plus kit (Takara Shuzo, Kyoto, Japan), according to the manufacturer’s protocol. The quality of RNA was confirmed by agarose gel electrophoresis and an optical density measurement of A260/A280. The cDNAs were prepared using SYBR® Premix Ex Taq^TMII (Takara Shuzo, Kyoto, Japan) and the following primers: 5′-[…]-3′ and 5′-[…]-3′ for TRPV1, and 5′-[…]-3′, 5′-[…]-3′ for GAPDH were carried out by using the LightCycler480 System. The relative expression was calculated by the 2^-ΔΔC(t) method ([Livak and Schmittgen, 2001]).
After treatment, the cells or tissues were collected and washed with PBS. Membrane protein extracts were obtained with Membrane Protein Extraction Kit (Thermo Fisher Scientific Inc, United States), according to the manufacturer’s protocol. Protein concentrations were quantified by using the BCA Protein Assay kit (Beyotime, Shanghai, China). Equal amounts of protein were resolved by SDS-PAGE on a 10% polyacrylamide gel and transferred onto a polyvinylidene fluoride membrane. […]

[3] = system: IEC-6/TRPV1+ cells; assay: LDH release assay (cell membrane integrity); conditions: for LDH release: IEC-6/TRPV1+; for LDH release compared with the control: NOVO 2.5, 5, 10 μM, CAP 25 μM, RR 10 μM, SB-705498 0.1 μM, 12 and 24 h
Procedure: as §4

[4] = system: IEC-6/TRPV1- cells; assay: CAP accumulation assay; assay type: cell-based, rat; conditions: 2.5-10 μM NOVO, 10 μM RR, 0.1 μM SB-705498, Figure 3D
Procedure: The transfected cells were grown to 80% confluence in 12-well plates. The experiment was divided into three parts: […] SB-705498, RR or NOVO was then added to the medium for another 15, 30, and 60 min. […] After incubation, the medium was removed, and cell layers were washed three times with ice-cold PBS and then extracted with Membrane Protein Extraction Kit (Thermo Fisher Scientific Inc, Rockford, IL, United States), according to the manufacturer’s protocol. The cytosolic protein extracts were stored at -80°C until LC-MS/MS analysis. The plasma samples and protein sample with 100 μL were extracted with 400 μL of methanol involving IS (verapamil 50 ng⋅mL^-1) by vortex-mix for 1 min, ultrasonic extraction for 1 h, and then centrifugation for 30 min at 15000 g. The supernatant was transferred into a borosilicate glass and 2 μL was subjected to LC-MS/MS analysis. The LC-MS/MS system consisted of Agilent 6460 Triple Quadrupole LC/MS systems via an ESI interface. The samples were separated on an Agilent ZORBAX SB-C18 column (3.5 μm, 2.1 mm × 150 mm) and the column temperature was maintained at 30°C. The mobile phase consisted of acetonitrile and water contains 0.1% formic acid (70:30, v/v). The flow rate was 0.2 mL⋅min^-1. The ion source was an electrospray ionization interface in the positive mode. […] Other parameters were as follows: spray voltage, 4.0 kV; capillary temperature, 350°C; gas flow, 10 L⋅min^-1.

[5] = system: IEC-6/TRPV1+ cells; assay: MTT cell viability assay; conditions: for Cell Survival: IEC-6/TRPV1+
Procedure: (§1) The rat intestinal epithelial cell line IEC-6, purchased from Kunming Institute of Zoology. CAS, was cultured in Dulbecco’s Modified Eagle’s Medium (DMEM) (Gibco, Grand Island, NY, United States) supplemented with 10% fetal bovine serum (FBS; Gibco) at 37°C in a humidified atmosphere of 5% CO2.
(§2) The plasmid pENTER containing the TRPV1 coding sequence NM_080704 was used as template in a PCR with the following primers: 5′-[…]-3′ (forward) and 5′-[…] (reverse). And synthetic small interfering RNA (siRNA) specific for rat TRPV1 (TRPV1-siRNA) was purchased from Vigene Bioscience (Rockville, MD, United States) with the following sequences: 5′-[…]-3′ (forward) and 5′-[…]-3′ (reverse) for TRPV1-siRNA. The transfecting process was conducted by using the lipofectamin® 3000 transfection reagent (Invitrogen^TM, Carlsbad, CA, United States), according to the manufacturer’s protocol.
(§3) The transfected cells were plated in 96-well plates. […] Optical density at 490 nm was used to evaluate cell viability in 96-well plates.

[6] = system: IEC-6/TRPV1- cells; assay: MTT cell viability assay
Procedure: as §1, §2, §3

O=C(Nc1ccccc1Br)N[C@@H]1CCN(c2ccc(C(F)(F)F)cn2)C1 [SB-705498]
LDH release ([1]; 0.1 μM, 12 h): 0.509 ± 0.155 gprot⋅mL ^-1
LDH release ([1]; 0.1 μM, 24 h): 0.537 ± 0.019 gprot⋅mL ^-1
fluorescence intensity of TRPV1 [2]: reduced
LDH release ([3]; 0.1 μM, 12 h): 0.469 ± 0.124 gprot⋅mL ^-1
LDH release ([3]; 0.1 μM, 24 h): 0.423 ± 0.149 gprot⋅mL ^-1
LDH release compared with the control [3]: not any significant difference
accumulation of CAP, co-incubation [4]: did not change
Cell Survival ([5]; 0.001 μM, incubation 12 h): 1.114 ± 0.190
Cell Survival ([5]; 0.001 μM, incubation 24 h): 1.018 ± 0.061
Cell Survival ([5]; 0.01 μM, incubation 12 h): 1.101 ± 0.236
Cell Survival ([5]; 0.01 μM, incubation 24 h): 1.129 ± 0.185
Cell Survival ([5]; 0.1 μM, incubation 12 h): 1.274 ± 0.223
Cell Survival ([5]; 0.1 μM, incubation 24 h): 1.118 ± 0.139
Cell Survival ([5]; 1 μM, incubation 12 h): 1.203 ± 0.139
Cell Survival ([5]; 1 μM, incubation 24 h): 1.052 ± 0.100
Cell Survival ([5]; 5 μM, incubation 12 h): 1.276 ± 0.156
Cell Survival ([5]; 5 μM, incubation 24 h): 0.976 ± 0.098
Cell Survival ([6]; 0.001 μM, incubation 12 h): 1.261 ± 0.268
Cell Survival ([6]; 0.001 μM, incubation 24 h): 0.999 ± 0.082
Cell Survival ([6]; 0.01 μM, incubation 12 h): 1.158 ± 0.144
Cell Survival ([6]; 0.01 μM, incubation 24 h): 0.968 ± 0.218
Cell Survival ([6]; 0.1 μM, incubation 12 h): 1.169 ± 0.333
Cell Survival ([6]; 0.1 μM, incubation 24 h): 0.962 ± 0.184
Cell Survival ([6]; 1 μM, incubation 12 h): 1.001 ± 0.229
Cell Survival ([6]; 1 μM, incubation 24 h): 0.933 ± 0.077
Cell Survival ([6]; 5 μM, incubation 12 h): 0.931 ± 0.296
Cell Survival ([6]; 5 μM, incubation 24 h): 0.907 ± 0.039

CO[C@@H]1[C@@H](OC(N)=O)[C@@H](O)[C@H](Oc2ccc3c(O)c(NC(=O)c4ccc(O)c(CC=C(C)C)c4)c(=O)oc3c2C)OC1(C)C [NOVO, novobiocin]
LDH release ([1]; 1 μM, 12 h): 0.638 ± 0.131 gprot⋅mL ^-1
LDH release ([1]; 1 μM, 24 h): 0.433 ± 0.127 gprot⋅mL ^-1
LDH release ([1]; 5 μM, 12 h): 0.651 ± 0.120 gprot⋅mL ^-1
LDH release ([1]; 5 μM, 24 h): 0.554 ± 0.103 gprot⋅mL ^-1
LDH release ([1]; 10 μM, 12 h): 0.535 ± 0.119 gprot⋅mL ^-1
LDH release ([1]; 10 μM, 24 h): 0.502 ± 0.106 gprot⋅mL ^-1
expression of TRPV1 mRNA and protein ([2]; 2.5-10 μM NOVO, over 24 h, Figures 2A,B,F): dramatically attenuate
fluorescence intensity of TRPV1 [2]: reduced
LDH release ([3]; 1 μM, 12 h): 0.415 ± 0.169 gprot⋅mL ^-1
LDH release ([3]; 1 μM, 24 h): 0.353 ± 0.026 gprot⋅mL ^-1
LDH release ([3]; 5 μM, 12 h): 0.356 ± 0.090 gprot⋅mL ^-1
LDH release ([3]; 5 μM, 24 h): 0.300 ± 0.052 gprot⋅mL ^-1
LDH release ([3]; 10 μM, 12 h): 0.337 ± 0.005 gprot⋅mL ^-1
LDH release ([3]; 10 μM, 24 h): 0.299 ± 0.072 gprot⋅mL ^-1
LDH release compared with the control [3]: not any significant difference
accumulation of CAP, co-incubation [4]: did not change
Cell Survival ([5]; 1.25 μM, incubation 12 h): 1.208 ± 0.172
Cell Survival ([5]; 1.25 μM, incubation 24 h): 1.353 ± 0.192
Cell Survival ([5]; 2.5 μM, incubation 12 h): 1.139 ± 0.157
Cell Survival ([5]; 2.5 μM, incubation 24 h): 1.326 ± 0.252
Cell Survival ([5]; 5 μM, incubation 12 h): 1.118 ± 0.201
Cell Survival ([5]; 5 μM, incubation 24 h): 1.282 ± 0.203
Cell Survival ([5]; 10 μM, incubation 12 h): 1.156 ± 0.135
Cell Survival ([5]; 10 μM, incubation 24 h): 0.954 ± 0.012
Cell Survival ([5]; 20 μM, incubation 12 h): 1.113 ± 0.102
Cell Survival ([5]; 20 μM, incubation 24 h): 0.744 ± 0.232
Cell Survival ([5]; 40 μM, incubation 12 h): 1.018 ± 0.091
Cell Survival ([5]; 40 μM, incubation 24 h): 0.752 ± 0.291
Cell Survival ([5]; 50 μM, incubation 12 h): 1.065 ± 0.125
Cell Survival ([5]; 50 μM, incubation 24 h): 0.668 ± 0.124
concentration up to which more than 80% of the cells were viable ([5]; both IEC-6/TRPV1+ and IEC-6/TRPV1-, incubated 24 h): 10 µM
Cell Survival ([6]; 1.25 μM, incubation 12 h): 1.261 ± 0.512
Cell Survival ([6]; 1.25 μM, incubation 24 h): 1.192 ± 0.099
Cell Survival ([6]; 2.5 μM, incubation 12 h): 1.063 ± 0.361
Cell Survival ([6]; 2.5 μM, incubation 24 h): 1.113 ± 0.177
Cell Survival ([6]; 5 μM, incubation 12 h): 1.128 ± 0.274
Cell Survival ([6]; 5 μM, incubation 24 h): 0.952 ± 0.134
Cell Survival ([6]; 10 μM, incubation 12 h): 1.101 ± 0.101
Cell Survival ([6]; 10 μM, incubation 24 h): 0.861 ± 0.088
Cell Survival ([6]; 20 μM, incubation 12 h): 1.011 ± 0.194
Cell Survival ([6]; 20 μM, incubation 24 h): 0.749 ± 0.138
Cell Survival ([6]; 40 μM, incubation 12 h): 1.051 ± 0.214
Cell Survival ([6]; 40 μM, incubation 24 h): 0.647 ± 0.015
Cell Survival ([6]; 50 μM, incubation 12 h): 1.123 ± 0.293
Cell Survival ([6]; 50 μM, incubation 24 h): 0.591 ± 0.261
